Substitutions are numbered along the chain they refer to. Where “and” joins values, the source holds several entries; their conditions need not be identical. Equal entries are not always repeated. Square brackets hold non-standard residues; d marks the D form. Peptide text beside a SMILES is read from it. dPiz(1,6-dehydro) = O=C(O)[C@H]1CCC=NN1; Pip = O=C(O)[C@@H]1CCCCN1; dPip = O=C(O)[C@H]1CCCCN1
Columns and labels:
Oxytocin receptor [1] = target: T1, Oxytocin receptor (Homo sapiens, UniProt P30559)
T1 sequence (P30559 whole entry): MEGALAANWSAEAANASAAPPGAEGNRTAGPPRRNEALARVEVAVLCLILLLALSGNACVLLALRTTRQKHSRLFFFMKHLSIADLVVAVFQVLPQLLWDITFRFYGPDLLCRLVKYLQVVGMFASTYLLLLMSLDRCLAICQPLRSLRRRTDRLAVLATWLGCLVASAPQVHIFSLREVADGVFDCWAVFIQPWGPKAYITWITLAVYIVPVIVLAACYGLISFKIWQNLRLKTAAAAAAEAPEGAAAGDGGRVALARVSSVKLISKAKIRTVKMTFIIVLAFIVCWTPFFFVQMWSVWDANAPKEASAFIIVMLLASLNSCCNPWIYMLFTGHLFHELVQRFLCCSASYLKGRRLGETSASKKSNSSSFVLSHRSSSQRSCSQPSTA

Vasopressin V2 receptor = Vasopressin V2 receptor (Rattus norvegicus, UniProt Q00788)
[2] = target: T2, Rat vasopressin-neurophysin (Rattus norvegicus, UniProt Q6LEI5)
T2 sequence (Q6LEI5 whole entry): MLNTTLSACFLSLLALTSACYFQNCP

Oxytocin receptor [3] = target: T3, Oxytocin receptor (Rattus norvegicus, UniProt P70536)
T3 sequence (P70536 whole entry): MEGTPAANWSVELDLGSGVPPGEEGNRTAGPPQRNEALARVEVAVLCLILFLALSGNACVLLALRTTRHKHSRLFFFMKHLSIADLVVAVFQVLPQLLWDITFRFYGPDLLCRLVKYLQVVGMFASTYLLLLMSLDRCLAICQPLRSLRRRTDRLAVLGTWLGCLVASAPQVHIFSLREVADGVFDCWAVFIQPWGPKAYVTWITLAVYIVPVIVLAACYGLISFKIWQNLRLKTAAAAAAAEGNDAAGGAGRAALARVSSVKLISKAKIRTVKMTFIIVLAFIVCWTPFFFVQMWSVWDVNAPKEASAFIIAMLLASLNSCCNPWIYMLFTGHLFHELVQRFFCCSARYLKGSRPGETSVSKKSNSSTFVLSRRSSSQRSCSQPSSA

Oxytocin receptor [4] = target: T4, Oxytocin receptor (Macaca mulatta, UniProt P56494)
T4 sequence (P56494 whole entry): T1 sequence (P30559 whole entry) with A4E, A11T, A14V, A16S, R27C, L51F, Q69H, V255M, R355N, A362T

Chain of Vasopressin V2 receptor (Q00788 whole entry): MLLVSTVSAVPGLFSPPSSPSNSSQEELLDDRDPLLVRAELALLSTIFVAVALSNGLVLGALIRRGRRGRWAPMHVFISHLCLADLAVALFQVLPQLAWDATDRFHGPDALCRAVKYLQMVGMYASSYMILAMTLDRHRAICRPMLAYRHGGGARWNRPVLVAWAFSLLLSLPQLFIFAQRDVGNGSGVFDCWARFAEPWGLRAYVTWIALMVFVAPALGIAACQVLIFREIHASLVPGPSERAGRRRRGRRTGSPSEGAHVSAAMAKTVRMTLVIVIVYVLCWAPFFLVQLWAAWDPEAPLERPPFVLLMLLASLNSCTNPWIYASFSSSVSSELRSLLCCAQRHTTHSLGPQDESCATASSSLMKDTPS

Row | SMILES | Ki (Oxytocin receptor [1]) [nM] | Ki (Vasopressin V2 receptor) | Ki [2] [nM] | Ki (Oxytocin receptor [3]) | Ki (Oxytocin receptor [4]) [nM]
1 | CC[C@H](C)[C@@H]1NC(=O)[C@@H](Cc2c[nH]c3ccccc23)NC(=O)[C@@H]2CCCN2C(=O)[C@@H](Cc2cnc[nH]2)NC(=O)[C@@H]2CCCCN2C(=O)[C@H]2CCC=NN2C1=O [J325.349J] (cyclo(I[dPiz(1,6-dehydro)][Pip][dH]P[dW])) | 1.3 | 370 nM | 1200 | 1.3 nM and 2.5 nM | 2.3
2 | CC[C@H](C)[C@@H]1NC(=O)[C@@H](Cc2ccccc2)NC(=O)[C@@H]2CCCN2C(=O)[C@@H](Cc2ccccc2)N(C)C(=O)[C@H]2CCC=NN2C1=O [J440.774A] | 21 | 550 nM | 240 | 6 nM and 13 nM | 33
3 | CCC(C)C1NC(=O)[C@H](Cc2ccccc2)NC(=O)[C@H]2CCCN2C(=O)[C@H](Cc2ccccc2)N(C)C(=O)[C@@H]2CCC=NN2C(=O)[C@H]2CCC=NN2C1=O (some centres undefined) [J325.338D] |  |  |  | 7.3 nM and 12 nM | 12
4 | CCC(C)C(NC(=O)C(N)Cc1ccc2ccccc2c1)C(=O)C1(C=O)CCCN1C(=O)C(N)CC1=NC(C(=O)N2CCCCC2)(C(=O)N2CCCCC2)N=C1 (centres undefined) [NSC_188397] | 5.1 | 810 nM and 320 nM | 760 | 0.7 nM and 0.8 nM | 6.4
5 | CCC(C)C1NC(=O)[C@H](Cc2ccccc2)NC(=O)[C@H]2CCCN2C(=O)[C@H](Cc2ccccc2)N(C)C(=O)[C@H]2CC(CN(C)C)CNN2C(=O)[C@H]2CCC=NN2C1=O (some centres undefined) [J440.775J] | 4.1 | 1100 nM | 550 | 4.3 nM and 6.2 nM | 8.1
6 | CCC(C)C(N)C(=O)N(C(=O)C1CCCN1C(=O)C(CC1=CC=CCC1(C(=O)N1C=CC=CC1)C(=O)N1CCNCC1)NC)C(C=O)Cc1c[nH]c2ccccc12 (centres undefined) [NSC_3083084] | 4.5 | 240 nM | 9500 | 3.4 nM and 4.2 nM | 4.7
7 | CC[C@H](C)[C@@H]1NC(=O)[C@@H](Cc2c[nH]c3ccccc23)NC(=O)[C@@H]2CCCN2C(=O)[C@@H](Cc2c[nH]cn2)NC(=O)[C@@H]2CCCCN2C(=O)[C@H]2CCCCN2C1=O [CAS_196819] (cyclo(I[dPip][Pip][dH]P[dW])) |  | 3100 nM | 2200 |  | 

From BindingDB's records for PubMed 1988661 (Merck Sharp & Dohme Research Laboratories, 1991)
